From patent publication US20120196019A1, “STEVIA SWEETENER WITH A SURFACTANT” (priority 2011, published 2012)
Like-named read-outs stand apart in the source and are kept apart here.

Legend:
[1] = cited from earlier work; for taste in sensory tests: 100% purity
[2] = Saturation of Reb A aqueous solution (Example 3); assay type: physicochemical; details: water
Procedure: Three concentrations of Reb A aqueous solutions were prepared: 500 ppm, 0.8% and 2.0%.
The 0.8% (by weight) is saturated.
The 2.0% (by weight) is over-saturated. After preparation, Reb A will continue to precipitate slowly and finally result in a 0.8% solution.

[3] = DLS size determination of 500 ppm RA solutions with gum Arabic (Example 5, FIGS. 7-9); assay type: physicochemical; details: conclusion of Example 5
Procedure: This example was for size determination.
The solutions noted below were filtered with a 0.45 μm membrane.
Measurements were obtained by DLS after the solution was filtered and allowed to equilibrate for six hours.
According to FIGS. 7 through 9, it was determined that: […]

In the case of C=C1C[C@@]23CC[C@H]4[C@@](C)(CCC[C@@]4(C)C(=O)O[C@@H]4O[C@H](CO)[C@@H](O)[C@H](O)[C@H]4O)[C@@H]2CC[C@]1(O[C@@H]1O[C@H](CO)[C@@H](O)[C@H](O[C@@H]2O[C@H](CO)[C@@H](O)[C@H](O)[C@H]2O)[C@H]1O[C@@H]1O[C@H](CO)[C@@H](O)[C@H](O)[C@H]1O)C3 [Reb A, Rebaudioside A], the “taste in sensory tests” value ([1]; 200 ppm aqueous solution) is given as “cannot bring a perfect taste close to sugar”, the “taste in sensory tests” value ([1]; higher concentrations, for example 500 ppm) is given as “bitterness and aftertaste issues appear strongly” and the “taste quality (increased sweetness and decreased bitterness)” value ([1]; Phytochemistry 68, 2007, 1855-1863) is given as “better than stevioside”. The “concentration of the saturated aqueous solution” value [2] was 0.8 % (by weight), the “size of micelles that the molecules tend to form in solution” value [3] was “above 1000 nm” and the “stability of the solution (aggregation)” value [3] was “unstable”.
